Measured values from patent US11958842B2, “Substituted phenazines and methods of treating cancer and bacterial diseases” (Adjutec Pharma AS, priority 2016, dated 2024).
Read-outs that look alike come from different tables or passages of the source. Marks after values point to notes of the source that are not given here.

Experiments:
[1] = system: normal rat kidney epithelial (NRK) cells; assay: Cytotoxicity, WST-1 and nuclear morphology (Example 73); assay type: cell-based
Description: (§1) All cell culturing media and serum were from Sigma-Aldrich (St. Louis, Mo., USA). Product Nos. are given in parentheses. The human acute myeloid leukemia cell line MOLM-13 was cultured in RPMI medium (R5886) enriched with […] (F7524) and 0.2 mM L-glutamine (G7513). The normal rat kidney epithelial (NRK) and the rat cardiomyoblast (H9c2) cells were cultured in DMEM medium (D6429) enriched with 10% fetal bovine serum (F7524). All cell lines were additionally supplemented with 100 IU/mL penicillin and […] (P0781). The cells were cultured in a humidified atmosphere either under 2% or 20% O2 at 37° C.
(§2) All analogues were dissolved in DMSO (D5879, Sigma-Aldrich) at concentrations between 2.5 and 20 mM before testing. For cytotoxic testing, the MOLM-13 cells were seeded as 20,000 cells/well, while NRK and H9c2 cells were seeded as 5,000 cells/well in 96-well Microplates (#167008, Thermo Scientific™ Nunc™ MicroWell™) with 100 μL medium/well. The cells were exposed to various concentrations of iodinin or its analogues for 24 hrs before the cell proliferation reagent WST-1 was used to assess the viability, in accordance with the manufacturer's instructions (11644807001, Roche Diagnostics, Sigma-Aldrich). The cells were next fixed in 2% buffered formaldehyde (pH 7.4) with the DNA-specific dye Hoechst 33342 (Polysciences Inc.) and assessed for cell death by UV-microscopy based on nuclear morphology. The highest concentration of analogue corresponded to 1% of DMSO, which alone gave less than 7% cell death as judged by nuclear morphology.
(§3) EC50 values were determined by analyses of WST-1 signal results as well as microscopic evaluation of cell death by four-parameter regression analyses using the SigmaPlot software (Systat Software inc. San Jose, Calif.):
(§4) [formula] where Y is the response (WST-1 signal or percent apoptosis), min and max are minimum and maximum response, X is concentration of analogue, EC50 equals the point of inflection, i.e. the point that gives half of maximum response, and h is the Hill's slope of the curve. The two methods gave consistent response curves for each analogue. In the case of Tirapazamine, where its colour interfered with the WST-1 signal, only microscopic evaluation of Hoechst stained cells was used in order to calculate its EC50 values.

[2] = system: rat cardiomyoblast (H9c2) cells; assay: as above; assay type: cell-based; conditions: H9c2, 19% O2, 24 hours of incubation, read-out: EC50 (μM) H9c2 19% O2
Description: as §1, §2, §3, §4

[3] = system: human acute myeloid leukemia cell line MOLM-13; assay: as above; assay type: cell-based
Description: as §1, §2, §3, §4

Molm13 cells = assay: Anti-AML activity, WST-1 viability (Example 72); assay type: cell-based; conditions: Homo sapiens
Description: Dry powder of analogs were dissolved in DMSO. IPC-18 rat AML cells (Lacaze, N. et al. Leuk. Res. 1983, 7, 145.) were cultured in DMEM medium (Sigma-Aldrich, St. Louis, Mo., USA) supplemented with 10% horse serum (Invitrogen, Carlsbad, Calif., USA), and antibiotics (50 U/mL of penicillin and 0.05 mg/mL streptomycin). Molm13 (Matsuo, Y. et al. Leukemia 1997, 11, 1469.) cells were cultured in RPMI supplemented with antibiotics (50 U/mL of penicillin and 0.05 mg/mL streptomycin) and 10% fetal bovine serum (FBS, Invitrogen, Carlsbad, Calif.) and kept in exponential growth before the experiments. Dilution series of iodinin analogs were added to medium and cell suspension added to reach a final cell concentration of 150 000 cells/ml in 0.1 mL in a 96 well tissue culture plate. […] The cells were incubated with the iodinin analogs for 22 h before WST-1 was added according to the manufacturers protocol, and the cells incubated further in 2 h. Mitochondrial conversion of WST-1 to its colored metabolite was measured by a plate reader at 450 nm, with 620 nm as the reference wavelength. The cells were next fixed by adding 4% buffered formaldehyde (PBS, pH 7.4, supplemented with 0.01 mg/mL Hoechst 33342 for nuclear visualization) to the cell suspension at 1:1 (v/v) ratio (final concentration of formaldehyde:[…]). The cells' nuclear and surface morphology were examined microscopically and results compared with the WST-1 viability assay. The results given in Table I are based on WST-1 data.

[4] = Parallel artificial membrane permeability assay (PAMPA); conditions: for LogPeff: PAMPA; for Permeability: PAMPA class by ranges of Bennion et al.
Description: The Corning Gentest™ pre-Coated parallel artificial membrane permeability assay PAMPA Plate System was from Cording Discovery Labware (Bedford, USA). The compounds were tested in room temperature at 50 μM using PBS as buffer. A total of 300 μl of the compound solution was added to each well of the donor plate, and 200 μl of PBS was added to the receiver filter plate. After incubation for five hours, 50 μl of the donor or acceptor well were injected into a reversed phase HPLC column (Kromasil 100-5 C18 150-4.6 mm, Akzo Nobel, Sweden) connected to a Merck-Hitachi LaChrome HPLC-system (VWR, WestChester, USA) with a L-7455 diode array detector. Mobile phase A was 0.05% aqueous TFA, and mobile phase B was acetonitrile. The flow rate was 1.6 ml/min and compounds eluted between 1 and 4.5 minutes was eluted during a 6.5 min gradient from 90:10% mobile phase A:B to 0:100% mobile phase A:B. The ratio of the compound concentrations in the donor and acceptor compartment was calculated after integration of the peaks at 285 nm. Peff was calculated as described in [Bennion B J, Be N A, McNerney M W, Lao V, Carlson E M, Valdez C A, et al. Predicting a Drug's Membrane Permeability: A Computational Model Validated With in Vitro Permeability Assay Data. The journal of physical chemistry B. 2017; 121(20):5228-37.]. Membrane permeability were classified by the range defined by Bennion et al., allowing for us to divide the compounds into four groups, compounds with high permeability (LogPeff>−5.33), intermediate permeability (LogPeff>−5.66 and <−5.33), low permeability (LogPeff>−6.14 and <−5.66) impermeable (LogPeff<−6.14).

[5] = Rattus norvegicus, 2% O2, 24 hours of incubation, read-out: EC50 (μM) NRK 2% O2
[6] = Rattus norvegicus, 19% O2, 24 hours of incubation, read-out: EC50 (μM) NRK 19% O2
[7] = Homo sapiens, MOLM-13, 2% O2, 24 hours of incubation, read-out: EC50 (μM) MOLM-13 2% O2
[8] = Homo sapiens, MOLM-13, 19% O2, 24 hours of incubation, read-out: EC50 (μM) MOLM-13 19% O2
[9] = Molm 13 cells, 2% O2, 24 h of incubation, WST-1, read-out: Molm 13 IC50 2% O2
[10] = Molm 13 cells, 20% O2, 24 h of incubation, WST-1, read-out: Molm 13 IC50 20% O2
[11] = 50 μM in PBS, room temperature, five hours
[12] = Rattus norvegicus, 24 h, read-out: EC50 (μM) NRK 2% O2, NRK, 2% O2, 24 hours of incubation
[13] = Rattus norvegicus, 24 h, read-out: EC50 (μM) NRK 19% O2, NRK, 19% O2, 24 hours of incubation
[14] = MOLM-13, 2% O2, 24 hours of incubation, read-out: EC50 (μM) MOLM-13 2% O2
[15] = MOLM-13, 19% O2, 24 hours of incubation, read-out: EC50 (μM) MOLM-13 19% O2

Compound | EC50 [1, 5] [µM] | EC50 [1, 6] [µM] | EC50 ([2]; Rattus norvegicus) [µM] | EC50 [3, 7] [µM] | EC50 [3, 8] [µM] | IC50 (Molm13 cells; [9]) [µM] | IC50 (Molm13 cells; [10]) [µM] | LogPeff [4, 11] | also measured
CCOC(=O)COc1cccc2c1[n+]([O-])c1cccc(O)c1[n+]2[O-] [Example 5c, 1-(2-(ethoxy)-2-oxoethoxy)-6-hydroxyphenazine 5,10-dioxide] | 18 ± 1.5 | 11 ± 1.6 | 15 ± 0.9 | 0.49 ± 0.12 | 0.57 ± 0.06 | 0.65 | 0.85 | −4.70 | 
Oc1cccc2nc3c(O)cccc3nc12 [Example 1b, 1,6-dihydroxyphenazine] |  |  |  | 110 to 140 | 100 to 120 |  |  | −5.42 | Permeability [4]: Intermediate/high
Cc1cc2c(cc1C)[n+]([O-])c1c(OC(=O)N3CCCC3)cccc1[n+]2[O-] [Example 52, 7,8-dimethyl-1-((pyrrolidine-1-carbonyl)oxy)phenazine 5,10-dioxide] |  |  |  |  |  |  |  | −5.32 | EC50 [1, 12]: 8.9 µM; EC50 [1, 13]: 6.6 ± 0.04 µM; EC50 [2]: 8.7 ± 1.2 µM; EC50 [3, 14]: 0.78 ± 0.11 µM; EC50 [3, 15]: 1.5 ± 0.02 µM
CCN(CC)C(=O)COc1cccc2c1[n+]([O-])c1cc(C)c(C)cc1[n+]2[O-] [Example 50, 1-(2-(diethylamino)-2-oxoethoxy)-7,8-dimethylphenazine 5,10-dioxide] | 52 ± 1.2 | 21 ± 0.3 | 41 ± 5.7 | 3.4 ± 0.78 | 1.8 ± 0.24 |  |  | −5.42 | Permeability [4]: Intermediate/high
[O-][n+]1c2cc3ccccc3cc2[n+]([O-])c2c(O)cccc21 [Example 70, 1-hydroxybenzo[b]phenazine 5,12-dioxide] |  |  |  |  |  |  |  | −8.04 | 
Nc1n[n+]([O-])c2ccccc2[n+]1[O-] [Tirapazamine, reference compound] |  |  |  |  |  |  |  |  | LogPeff ([4]; 5 h, 50 μM): −5.79
CCCCC(=O)Oc1cccc2c1[n+]([O-])c1cccc(OC(=O)CCCC)c1[n+]2[O-] [Example 16b, 1,6-bis(pentanoyloxy)phenazine 5,10-dioxide] |  |  | > 200 | 22 ± 2.8 | 36 ± 0.1 |  | ~40 | −8.66 | 
CN(C)C(=O)Oc1cccc2c1[n+]([O-])c1ccccc1[n+]2[O-] [Example 8k, 1-((dimethylcarbamoyl)oxy)phenazine 5,10-dioxide] |  |  |  |  |  |  |  |  | EC50 [1, 12]: 25 ± 0.6 µM; EC50 [1, 13]: 19 ± 1.3 µM; EC50 [2]: 16 ± 2.6 µM; EC50 [3, 14]: 2.1 ± 0.16 µM; EC50 [3, 15]: 1.3 ± 0.15 µM; IC50 (Molm13 cells; MOLM-13, 24 h, read-out: Molm 13 IC50 20% O2): 0.32 µM
CCOC(=O)COc1cccc2c1[n+]([O-])c1cccc(OCC(=O)OCC)c1[n+]2[O-] [Example 16c, 1,6-bis(2-ethoxy-2-oxoethoxy)phenazine 5,10-dioxide] | > 20 | > 20 | > 20 | 0.79 ± 0.06 | 2 ± 0.47 | 3.98 | 4.11 |  | 
CC(C)(C)C(=O)Oc1cccc2c1[n+]([O-])c1cccc(OC(=O)C(C)(C)C)c1[n+]2[O-] [Example 16d, 1,6-bis(pivaloyloxy)phenazine 5,10-dioxide] |  |  | > 50 | 8.9 ± 1.71 | 11 ± 0.7 | 5.59 | 4.05 | −5.86* | 
O=C(O)COc1cccc2c1[n+]([O-])c1cccc(O)c1[n+]2[O-] [Example 7, 1-(carboxymethoxy)-6-hydroxyphenazine 5,10-dioxide] |  |  |  | 61 ± 4 | 54 ± 7 |  |  | −7.53 | 
CN1CCN(C(=O)Oc2cccc3c2[n+]([O-])c2cc4ccccc4cc2[n+]3[O-])CC1 [Example 71, 1-((4-methylpiperazine-1-carbonyl)oxy)benzo[b]phenazine 5,12-dioxide] |  |  |  |  |  |  |  | −5.43 | EC50 [1, 12]: 7.5 ± 0.38 µM; EC50 ([1]; read-out: EC50 (μM) NRK 19% O2, 19% O2, 24 hours of incubation): 2 ± 0.06 µM; EC50 [2]: 2.3 ± 0.05 µM; EC50 [3, 14]: 1.8 ± 0.1 µM; EC50 [3, 15]: 2.8 ± 0.18 µM; Permeability [4]: Intermediate/high
CCOC(=O)Oc1cccc2c1[n+]([O-])c1cccc(OC(=O)OCC)c1[n+]2[O-] [Example 16e, 1,6-bis((ethoxycarbonyl)oxy)phenazine 5,10-dioxide] | > 25 | > 25 | > 25 | 4 ± 0.33 | 6.1 ± 0.05 | 3.5 | 2.23 |  | 
